Assays:
[1] = test system: cultured cortical astrocytes; assay: sniffer-patch detection of glutamate release from cultured wild-type astrocytes with GluR1(L497Y)-transfected HEK cells; format: cell-based, mice; settings: for inward current in HEK cells expressing GluR1(L497Y): brief (<1 sec) pressure application, 500 μM TFLLR, 300 μM ATP, 180 μM bradykinin, wild-type astrocytes
Procedure: (§1) HEK 293 cells were transfected with a 1:3.5 ratio of GFP and GluR1(L497Y) using the calcium phosphate method using effectence for 6-8 hours, after which the media was replaced and supplemented with 1 mM kynurenic acid and 10 μM N-(4-hydroxyphenylpropanoyl) spermine or 10 μM CNQX. The transfected HEK cells were subsequently trypsinized and replated onto astrocyte feeder layers derived from either wild-type or PAR1−/− mice 24 hours post-transfection, and recordings were performed 24 hours after replating. The prepared transfectant was used as a biosensor in the following examples.
In this experimental example, the glutamate release from astrocytes was quantitatively evaluated in real time by a “sniffer-patch” detection system. […] The “sniffer-patch” method was performed according to “T. G. J. Allen, Trends Neurosci., Vol. 20, No. 5 pp. […], 1997”, unless there is different mention thereto.
Cultured astrocytes were prepared from P0-P3 postnatal mice obtained from KIST SPF. The cerebral cortex was dissected free of adherent meninges, minced, and dissociated into single cell suspension by trituration through a Pasteur pipette. All procedures involving the use of animals were reviewed and approved by the Emory University IACUC. Dissociated cells were plated onto either 12 mm glass coverslips or 6 well plates coated with 0.1 mg/ml poly-D-lysine. Cells were grown in DMEM media (Gibco, cat# 11960-044) supplemented with 25 mM glucose, 10% heat-inactivated horse serum, and 10% heat-inactivated fetal bovine serum, 2 mM glutamine, and 1000 units/ml penicillin-streptomycin. Cultures were maintained at 37° C. in a humidified 5% CO2-containing atmosphere. Astrocyte cultures prepared in this way were previously determined by GFAP (glial fibrillary acidic protein) staining to be greater than 95% astrocytes (Nicole et al., 2005). In some experiments, the culture media was replaced 24 hours after plating with DMEM with all added components except glutamine, and cultures were maintained for 4 days before experimentation in glutamine-free media.
Thus, this technique provides millisecond time resolution for the detection of micromolar levels of glutamate released from astrocytes.
(§2) GluR1(L497Y)-transfected HEK cells were directly plated onto an astrocyte monolayer, and subsequently the whole cell HEK current response under voltage clamp during brief 0.2 sec application of the PAR1 activator TFLLR (500 μM), ATP (300 μM), or bradykinin (180 μM), respectively, from a pressurized pipette was recorded (FIGS. 1a, and 1b).

wild-type astrocytes = assay: Fura-2 Ca2+ imaging in wild-type astrocytes; format: cell-based, mice; settings: brief (<1 sec) pressure application; 500 μM TFLLR, 300 μM ATP, 180 μM bradykinin; Fura-2-AM
Procedure: (§3) FIG. 1a is a schematic illustrating experimental setup and a GFP fluorescent image of astrocyte—GluR1(L497Y)/GFP transfected HEK cell co-culture (upper left panel). […] The Fura2-AM loading was performed by incubating with 5 μM Fura2-AM in 1 μM pluronic acid (Molecular Probes) for 30 min at room temperature. The calibration bar is 20 μm.

cultured neurons = assay: glutamate release from cultured neurons detected with GluR1(L497Y)-transfected HEK cells; format: cell-based
Procedure: To verify this prediction, effects of a hyperosmotic solution on the glutamate-release from cultured neurons and astrocytes were evaluated and are shown in FIGS. 3a to 3c.
The detection is abolished by the treatment of 10 μM CNQX. The right panel is the summary of the current amplitude changes; *p<0.05; paired t-test (n=6).
That is, a brief application of TFLLR caused no detectable glutamate-induced current in GluR1(L497Y)-transfected HEK cells adjacent to neurons.

NR1-1a/NR2A2D = assay: D-serine or glycine release from astrocytes detected with NR1-1a/NR2A2D-transfected HEK cells; format: cell-based; settings: 100 uM glutamate + 10 uM DCKA vs 100 uM glutamate alone; 500 uM TFLLR
Procedure: HEK 293 cells were transfected NR1-1a and NR2A2D at a ratio of 1:2 by using the calcium phosphate method using effectence for 6-8 hours, after which the media was replaced and supplemented with 5 mM magnesium chloride and 10 μM D-2-amino-phosphonopentanoic acid or 10 μM D-AP5. The transfected HEK cells were subsequently trypsinized and replated onto astrocyte feeder layers derived from wild-type 24 hours post-transfection, and recordings performed 24 hours after replating. The prepared transfectant was used as a biosensor in the following examples.
To activate the NMDA receptor, it is necessary for the two subunits to bind to the corresponding binding materials, respectively. The activation may be confirmed by measuring intracellular inward current.
In this example, the media was supplemented with sufficient glutamate to saturate the glutamate domain. The intracellular inward current in the biosensor prepared in Example 5, under the conditions with or without treating a glycine binding domain blocker, DCKA, which artificially makes a glycine-free or D-serine-free condition, to examine the glycine or D-serine detecting ability of the biosensor.

GluR1(L497Y) = biological target: T1, GluR1(L497Y) (Rattus norvegicus, UniProt P19490, L497Y); assay: glutamate activation of GluR1(L497Y) current in transfected HEK cells (dose response); format: cell-based
T1 construct: expressed in transfected cells; host or cells: HEK 293 cells (ATCC1573)
T1 sequence (P19490 19-907 L497Y): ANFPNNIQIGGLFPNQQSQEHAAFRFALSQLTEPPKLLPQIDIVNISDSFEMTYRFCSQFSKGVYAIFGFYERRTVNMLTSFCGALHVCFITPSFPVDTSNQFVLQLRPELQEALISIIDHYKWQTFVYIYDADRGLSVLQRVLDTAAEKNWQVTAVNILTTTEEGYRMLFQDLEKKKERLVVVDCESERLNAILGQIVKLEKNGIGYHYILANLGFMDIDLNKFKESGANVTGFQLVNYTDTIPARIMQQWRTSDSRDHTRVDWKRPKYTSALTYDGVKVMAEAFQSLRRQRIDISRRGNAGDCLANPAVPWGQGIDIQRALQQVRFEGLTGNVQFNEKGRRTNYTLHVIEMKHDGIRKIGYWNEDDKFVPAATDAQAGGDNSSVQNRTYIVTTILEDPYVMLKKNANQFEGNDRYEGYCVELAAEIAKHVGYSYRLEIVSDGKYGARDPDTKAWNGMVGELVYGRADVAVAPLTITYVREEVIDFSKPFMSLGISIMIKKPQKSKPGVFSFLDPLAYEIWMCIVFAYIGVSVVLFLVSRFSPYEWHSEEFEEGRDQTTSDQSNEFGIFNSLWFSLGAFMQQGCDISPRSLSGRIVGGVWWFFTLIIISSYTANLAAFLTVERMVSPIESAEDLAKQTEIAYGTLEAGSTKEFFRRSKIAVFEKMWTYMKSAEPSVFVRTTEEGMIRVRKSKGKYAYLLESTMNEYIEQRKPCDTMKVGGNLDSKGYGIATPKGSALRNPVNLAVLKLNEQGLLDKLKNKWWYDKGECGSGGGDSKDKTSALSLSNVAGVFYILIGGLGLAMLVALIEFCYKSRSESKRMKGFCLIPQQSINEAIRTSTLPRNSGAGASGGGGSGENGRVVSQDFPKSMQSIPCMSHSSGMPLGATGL
Procedure: as §1

PAR1-/- astrocytes [2] = assay: Ca2+-sensitive dye imaging in PAR1-/- astrocytes; format: cell-based, mice; settings: TFLLR application
Procedure: as §3
(§4) These control experiments were performed on the same day as TFLLR stimulation of HEK cells on wild-type astrocytes, and confirm that PAR1 activators had no direct effect on GluR1(L497Y) currents in HEK cells.

[3] = test system: acutely dissociated CA1 astrocytes; assay: glutamate release from acutely dissociated CA1 hippocampal astrocytes detected with GluR1(L497Y)-transfected HEK cells; format: cell-based, mice; settings: brief (1 sec) application of TFLLR; n=4
Description: Cells were acutely dissociated from the CA1 region of hippocampal slices prepared from transgenic mice (Jackson Laboratories) expressing GFP under control of the GFAP promoter (Brenner et al., 1994), allowing to unambiguously identify isolated hippocampal astrocytes that had not been subject to tissue culture. Cells were dissociated directly onto GluR1(L497Y)-transfected HEK cells obtained in Example 1.

PAR1-/- astrocytes [4] = assay: sniffer-patch detection of glutamate release from PAR1-/- astrocytes with GluR1(L497Y)-transfected HEK cells; format: cell-based, mice
Procedure: as §1, §2

HEK cells = assay: Ca2+-sensitive dye imaging in HEK cells (endogenous PAR1); format: cell-based; settings: TFLLR application, co-culture on PAR1-/- astrocytes
Procedure: as §3, §4

With `Nc1ncnc2c1ncn2[C@@H]1O[C@H](COP(=O)(O)OP(=O)(O)OP(=O)(O)O)[C@@H](O)[C@H]1O` [ATP] the “inward current in HEK cells expressing GluR1(L497Y)” value [1] was “elicited an inward current” and the “astrocytic intracellular Ca2+” value (wild-type astrocytes) was “increased”.

For `N#Cc1cc2[nH]c(=O)c(=O)[nH]c2cc1[N+](=O)[O-]` [CNQX], the “effect on inward currents evoked by TFLLR” value ([1]; CNQX 10 μM, glutamine-free medium) was “completely abolished” and the “effect on detection of neuronal glutamate release evoked by hyperosmotic solution” value (cultured neurons; 10 μM CNQX, hyperosmotic solution 530 mosmol) was “abolished”.

In the case of `O=C(O)c1cc(=O)c2c(Cl)cc(Cl)cc2[nH]1` [DCKA, 5,7-dichlorokynurenic acid], the “inward current value after treating TFLLR” value (NR1-1a/NR2A2D) is reported as “considerably decreased”.

`N[C@@H](CCC(=O)O)C(=O)O` [glutamate] showed a Hill slope (GluR1(L497Y)) of 1.3.

With TFLLR the “current response, % of the maximal response” value ([1]; astrocytes cultured in the absence of glutamine, TFLLR 500 μM, n=4) was 9.7 ± 1.3%, the “inward current in HEK cells expressing GluR1(L497Y)” value [1] was “elicited an inward current” and the “glutamate evoked current (%)” value ([1]; percent of maximal response, applied to wild-type astrocytes, glutamine-containing medium, TFLLR 500 μM in pipette) was 10±2.6%. For the same molecule, the “glutamate-induced current in GluR1(L497Y) HEK cells on astrocytes” value ([1]; same-day positive control, TFLLR or hyperosmotic solution, n=4) was 136±35 pA, the “peak (maximum) glutamate concentration” value ([1]; wild-type astrocyte cultures, TFLLR application, converted from current by Formula 1) was 1.1 ± 0.24 µM and the “PAR1-/- astrocytic intracellular Ca2+” value (PAR1-/- astrocytes [2]) was “did not alter”. The “astrocytic intracellular Ca2+” value (wild-type astrocytes) was “increased”, the “glutamate release (concentration) evoked by TFLLR” value [3] was 1.46 ± 0.54 µM and the “glutamate-induced current in GluR1(L497Y) HEK cells adjacent to neurons” value (cultured neurons; 30 μM TFLLR or hyperosmotic solution, n=3) was 3.0±0.1 pA. The “peak (maximum) glutamate concentration” value (PAR1-/- astrocytes [4]; PAR1-/- astrocyte cultures, TFLLR application, converted from current by Formula 1) was 0.23 ± 0.13 µM, the “glutamate evoked current (%)” value (PAR1-/- astrocytes [4]; percent of maximal response, applied to PAR1-/- astrocytes) was 1.4±0.9% and the “HEK cell intracellular Ca2+” value (HEK cells) was “did increase”.
